Here are results for 27 compounds from US20230104936A1, “TRPML MODULATORS” (Casma Therapeutics, Inc., priority 2019, published 2023).

One experiment concerns TFEB. The experiment in a line: TFEB nuclear translocation assay, HeLa wt cells. The format is cell-based. Conditions: 2 hrs compound treatment, Table 1 does not say HeLa wt or TRPML1 KO. As to the method: For the TFEB nuclear translocation assay, HeLa wt or HeLa TRPML1 KO cells were plated at 2700 cells/well into black-walled, 384-well Cell carrier Ultra tissue culture treated plates in complete media and incubated overnight. The next day, cells are treated for 2 hrs with compounds and incubated at 37° C. Cells were then fixed for 30 minutes at room temperature in 4% final PFA and washed five times with 90 μL PBS. PBS is aspirated from the wells and the cells are blocked with 7.5 μL blocking buffer (1:1 PBS/Odyssey block buffer containing 0.1% triton x-100 and 1% goat serum). After 30-60 minutes of block, 7.5 μL of primary anti-TFEB (rabbit) antibody is added for a final dilution of 1:200 antibody in 15 μL blocking buffer. Plates are incubated overnight at 4° C. The following day, plates are washed again into PBS, 90 μL with 5 washes, all PBS is aspirated from the wells and the cells are incubated for 1 hr in 1:1000 goat-anti rabbit Alexa 488 secondary antibody, also containing 10 μg/mL Hoechst 33342. After the 1 hr room temperature incubation, plates are washed a final time into PBS, sealed with foil and imaged with an automated epifluorescence microscopy (PerkinElmer Operetta CLS). Four different fields were imaged per well using ×20 magnification for DAPI and FITC filter sets. Images were quantified using PerkinElmer Harmony software, briefly: apply flatfield correction (basic/advanced) for input images. Use the Find Nuclei building block with channel set at Hoechst to find the nuclei. Use the Find cytoplasm building block with channel set to Alexa 488 to find the cytoplasm. Use select cell region with Channel set at Alexa 488 and region of interest as Nuclei and define outer border at 0 μm and inner at 45 μm to cover complete nuclei. Use select cell region with Channel set at Alexa 488 and region of interest as ring region and define outer border at −5 μm and inner at 0 μm to define a ring around the nucleus. Use the find calculate intensity parameter to calculate intensity of the nuclear region and the ring region. Define results as Number of nuclei and ratio of A/B where A is Intensity of Nuclei and B is intensity of the ring region.
The compound numbers correspond to the compound numbers above in Tables A or B. Compounds having an activity designated as “++++” provided an AC50 of ≤2.00 μM; compounds having an activity designated as “+++” provided an AC50 of 2.01-8.00 μM; compounds having an activity designated as “++” provided an AC50 of 8.01-9.99 μM; and compounds having an activity designated as “+” provided an AC50 of ≥10.00 μM.
`CC(C1CCN(c2c(F)cccc2NS(=O)(=O)c2ccc(S(=N)(=O)N(C)C)cc2)CC1)N1C[C@@H](C)O[C@@H](C)C1` (single isomer, unassigned) [Compound A-872]: the AC50 (in general, the concentration giving half of the maximal activity seen) is not above 2000 nM. Same read-out and setting: the same measure for `C[C@H](c1cccc(F)c1N1CCC(F)(F)CC1)S(=O)(=O)c1ccc(S(=N)(=O)N(C)C)cc1` (single isomer, unassigned) [Compound A-890]: 2010 to 8000 nM; for `C[C@H](c1cccc(F)c1N1CCC(F)(F)CC1)S(=O)(=O)c1ccc(S(=N)(=O)N(C)C)cc1` (single isomer, unassigned) [Compound A-891]: not below 10000 nM. Same read-out and setting: the same measure for `C[C@H](c1cccc(F)c1N1CCC(C2(N3CCOCC3)CC2)CC1)S(=O)(=O)c1ccc(S(=N)(=O)N(C)C)cc1` (single isomer, unassigned) [Compound A-893]: not below 10000 nM; for `C[C@H](c1cccc(F)c1N1CCCCC1)S(=O)(=O)c1ccc(S(=N)(=O)N(C)C)cc1` (single isomer, unassigned) [Compound A-894]: 2010 to 8000 nM. In turn, `C[C@H](c1cccc(F)c1N1CCCCC1)S(=O)(=O)c1ccc(S(=N)(=O)N(C)C)cc1` (single isomer, unassigned) [Compound A-895] registered an AC50 not below 10000 nM. Still for that read-out and setting: next, `C[C@@H]1CN(CC2CCN(c3c(F)cccc3[C@@H](C)S(=O)(=O)c3ccc(S(=N)(=O)N(C)C)cc3)CC2)C[C@H](C)O1` (single isomer, unassigned) [Compound A-903]: not below 10000 nM; `CN(C)S(=O)(=O)c1ccc(S(=O)(=O)Nc2cccc(F)c2N2CCC(N3CCC4(CCOC4)C3)CC2)cc1` (single isomer, unassigned) [Compound A-910, N1-(2-(4-(2-oxa-7-azaspiro[4.4]nonan-7-yl)piperidin-1-yl)-3-fluorophenyl)-N4,N4-dimethylbenzene-1,4-disulfonamide]: 2010 to 8000 nM; `CC(c1cccc(F)c1N1CCCCC1)S(=O)(=O)c1ccc(S(=O)(=O)N(C)C)cc1` (single isomer, unassigned) [Compound A-912, 4-((1-(3-fluoro-2-(piperidin-1-yl)phenyl)ethyl)sulfonyl)-N,N-dimethylbenzenesulfonamide]: not above 2000 nM.

The compound `CC(c1cccc(F)c1N1CCC(CN2C3CCC2COC3)CC1)S(=O)(=O)c1ccc(S(C)(=O)=O)cc1` (single isomer, unassigned) [Compound A-913, 8-((1-(2-fluoro-6-(1-((4-(methylsulfonyl)phenyl)sulfonyl)ethyl)phenyl)piperidin-4-yl)methyl)-3-oxa-8-azabicyclo[3.2.1]octane] showed an AC50 not above 2000 nM. The same measure, in the same setting: next, `CC(c1cccc(F)c1N1CCC(CN2C3CCC2COC3)CC1)S(=O)(=O)c1ccc(S(C)(=O)=O)cc1` (single isomer, unassigned) [Compound A-914, 8-((1-(2-fluoro-6-(1-((4-(methylsulfonyl)phenyl)sulfonyl)ethyl)phenyl)piperidin-4-yl)methyl)-3-oxa-8-azabicyclo[3.2.1]octane]: not below 10000 nM; `Cc1ccc(S(=O)(=O)C(C)c2cccc(F)c2N2CCC(CN3C4CCC3COC4)CC2)cc1` (single isomer, unassigned) [Compound A-924, 8-((1-(2-fluoro-6-(1-tosylethyl)phenyl)piperidin-4-yl)methyl)-3-oxa-8-azabicyclo[3.2.1]octane]: not above 2000 nM; `C[C@@H](c1cccc(F)c1N1CCCCC1)S(=O)(=O)c1ccc(S(=N)(=O)N(C)C)cc1` (single isomer, unassigned) [Compound A-930]: 2010 to 8000 nM.

`CC(c1cccc(F)c1N1CCC(C)(C(F)F)CC1)S(=O)(=O)c1ccc(S(=O)(=O)N(C)C)cc1` (single isomer, unassigned) [Compound A-933, 4-((1-(2-(4-(difluoromethyl)-4-methylpiperidin-1-yl)-3-fluorophenyl)ethyl)sulfonyl)-N,N-dimethylbenzenesulfonamide]: the AC50 is not above 2000 nM.

Compound `C[C@@H](c1cccc(F)c1N1CCC(C(F)(F)F)CC1)S(=O)(=O)c1ccc(S(=N)(=O)N(C)C)cc1` (single isomer, unassigned) [Compound A-935] returned an AC50 not above 2000 nM.

The same experiment, now with this note: Homo sapiens, HeLa, 2 h, 2 hrs compound treatment, Table 1 does not say HeLa wt or TRPML1 KO.
For the compound `CC(C1CCN(c2c(F)cccc2NS(=O)(=O)c2ccc(S(=N)(=O)N(C)C)cc2)CC1)N1C[C@@H](C)O[C@@H](C)C1` (single isomer, unassigned) [Compound A-871], the AC50 is not above 2000 nM. As to `CC(c1cccc(F)c1N1CCC(CN2C[C@@H](C)O[C@H](C)C2)CC1)S(=O)(=O)c1ccc(S(=O)(=O)N(C)C)cc1` (single isomer, unassigned) [Compound A-885, 4-[1-[2-(4-{[2,6-dimethylmorpholin-4-yl]methyl}piperidin-1-yl)-3-fluorophenyl]ethanesulfonyl]-N,N-dimethylbenzene-1-sulfonamide], the AC50 was not above 2000 nM. Same read-out and setting: the same measure for `C[C@H](c1cccc(F)c1N1CCC(C2(N3CCOCC3)CC2)CC1)S(=O)(=O)c1ccc(S(=N)(=O)N(C)C)cc1` (single isomer, unassigned) [Compound A-892]: 8010 to 9990 nM; for `C[C@@H]1CN(CC2CCN(c3c(F)cccc3[C@@H](C)S(=O)(=O)c3ccc(S(=N)(=O)N(C)C)cc3)CC2)C[C@H](C)O1` (single isomer, unassigned) [Compound A-902]: not below 10000 nM; for `CN(C)S(=O)(=O)c1ccc(S(=O)(=O)Nc2cccc(F)c2N2CCC(N3CCC4(CCOC4)C3)CC2)cc1` (single isomer, unassigned) [Compound A-909, N1-(2-(4-(2-oxa-7-azaspiro[4.4]nonan-7-yl)piperidin-1-yl)-3-fluorophenyl)-N4,N4-dimethylbenzene-1,4-disulfonamide]: 2010 to 8000 nM. In turn, `CC(c1cccc(F)c1N1CCCCC1)S(=O)(=O)c1ccc(S(=O)(=O)N(C)C)cc1` (single isomer, unassigned) [Compound A-911, 4-((1-(3-fluoro-2-(piperidin-1-yl)phenyl)ethyl)sulfonyl)-N,N-dimethylbenzenesulfonamide] returned an AC50 not above 2000 nM.

For `CC(C)S(=N)(=O)c1ccc(S(=O)(=O)[C@H](C)c2cccc(F)c2N2CCCCC2)cc1` (single isomer, unassigned) [Compound A-923], the AC50 is not below 10000 nM. Still for that read-out and setting: the same measure for `CC(c1cccc(F)c1N1CCC(C)(C(F)F)CC1)S(=O)(=O)c1ccc(S(=O)(=O)N(C)C)cc1` (single isomer, unassigned) [Compound A-925, 4-((1-(2-(4-(difluoromethyl)-4-methylpiperidin-1-yl)-3-fluorophenyl)ethyl)sulfonyl)-N,N-dimethylbenzenesulfonamide]: not above 2000 nM; for `C[C@@H](c1cccc(F)c1N1CCCCC1)S(=O)(=O)c1ccc(S(=N)(=O)N(C)C)cc1` (single isomer, unassigned) [Compound A-929]: not above 2000 nM. The same measure, in the same setting: the same measure for `C[C@@H]1CN(CC2CCN(c3c(F)cccc3[C@H](C)S(=O)(=O)c3ccc(S(=N)(=O)N(C)C)cc3)CC2)C[C@H](C)O1` (single isomer, unassigned) [Compound A-931]: not above 2000 nM. The same measure, in the same setting: next, `C[C@@H](c1cccc(F)c1N1CCC(C(F)(F)F)CC1)S(=O)(=O)c1ccc(S(=N)(=O)N(C)C)cc1` (single isomer, unassigned) [Compound A-932]: not above 2000 nM. `C[C@@H](c1cccc(F)c1N1CCC(F)(F)CC1)S(=O)(=O)c1ccc(S(=N)(=O)N(C)C)cc1` (single isomer, unassigned) [Compound A-936] registered an AC50 not above 2000 nM.
